Legend:
[1] = tested on: wild oat; assay: Test C postemergence; type: in vivo, Avena fatua
How it was run: (§1)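 Sown in loam/sand → sprayed pre-emergence; or grown to 1–4 leaves in peat mix → sprayed post-emergence. Same solvent/surfactant formulation both ways. Greenhouse 13–15 d. Score 0–100 visual.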

[2] = tested on: barnyardgrass; assay: Test B flooded paddy test; type: in vivo, Echinochloa crus-galli; conditions: Flood, 250 g ai/ha; 0 to 100 scale where 0 is no effect and 100 is complete control
How it was run: (§2)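 Greenhouse flooded-pot test: compounds dosed into 3 cm standing water over 2-leaf plants, flood held constant. Rated visually after 13–15 days on 0–100 (complete control = 100); a dash marks no test result.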

[3] = tested on: giant foxtail; assay: Test C postemergence; type: in vivo, Setaria faberii; conditions: for Foxtail, Giant plant response rating / Plant response rating, Foxtail, Giant: scale 0 to 100 (0 no effect, 100 complete control)
How it was run: as §1

[4] = tested on: rice; assay: Test B flooded paddy test; type: in vivo, Oryza sativa; conditions: Flood, 250 g ai/ha; 0 to 100 scale where 0 is no effect and 100 is complete control
How it was run: as §2

[5] = tested on: barnyardgrass; assay: Test A preemergence; type: in vivo, Echinochloa crus-galli; conditions: for Barnyardgrass plant response rating: 500 g ai/ha
How it was run: (§3)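 Injury scores run from 0, no effect, to 100, complete control, judged by eye against untreated plants roughly 10 days after treatment. Chemicals carried a surfactant in a non-phytotoxic solvent and went onto loam–sand soil preemergence or onto one- to two-leaf seedlings postemergence.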

[6] = tested on: barnyardgrass; assay: Test C postemergence; type: in vivo, Echinochloa crus-galli; conditions: for Barnyardgrass plant response rating / Plant response rating, Barnyardgrass: scale 0 to 100 (0 no effect, 100 complete control)
How it was run: as §1

[7] = tested on: chickweed; assay: Test C postemergence; type: in vivo, Stellaria media; conditions: for Chickweed plant response rating / Plant response rating, Chickweed: scale 0 to 100 (0 no effect, 100 complete control)
How it was run: as §1

[8] = tested on: sedge, umbrella; assay: Test B flooded paddy test; type: in vivo, Cyperus difformis; conditions: Flood, 250 g ai/ha; 0 to 100 scale where 0 is no effect and 100 is complete control
How it was run: as §2

[9] = tested on: yellow nutsedge; assay: Test C postemergence; type: in vivo, Cyperus esculentus
How it was run: as §1

[10] = tested on: lambsquarters; assay: Test C postemergence; type: in vivo, Chenopodium album
How it was run: as §1

[11] = tested on: barnyardgrass; assay: Test A postemergence; type: in vivo, Echinochloa crus-galli
How it was run: as §3

[12] = tested on: morningglory; assay: Test C postemergence; type: in vivo, Ipomoea coccinea
How it was run: as §1

[13] = tested on: large (Lg) crabgrass; assay: Test C postemergence; type: in vivo, Digitaria sanguinalis; conditions: for Crabgrass, Large plant response rating / Plant response rating, Crabgrass, Large: scale 0 to 100 (0 no effect, 100 complete control)
How it was run: as §1

[14] = tested on: pigweed; assay: Test A postemergence; type: in vivo, Amaranthus retroflexus
How it was run: as §3

[15] = 8 g ai/ha, postemergence, 0 is no effect, 100 is complete control
[16] = 16 g ai/ha, postemergence, 0 is no effect, 100 is complete control
[17] = 31 g ai/ha, postemergence, visual rating, scale 0 to 100 (0 no effect, 100 complete control), 13 to 15 days
[18] = 31 g ai/ha, postemergence, visual rating, 13 to 15 days
[19] = 125 g ai/ha, 0 to 100 scale where 0 is no effect and 100 is complete control
[20] = 4 g ai/ha, postemergence, 0 is no effect, 100 is complete control
[21] = 31 g ai/ha, 0 to 100 scale, 0 no effect, 100 complete control
[22] = Postemergence, 31 g ai/ha, scale 0 to 100 (0 no effect, 100 complete control), 13 to 15 days
[23] = Postemergence, 62 g ai/ha, scale 0 to 100 (0 no effect, 100 complete control)
[24] = 16 g ai/ha, postemergence, visual rating, 13 to 15 days
[25] = Postemergence, 31 g ai/ha, 13 to 15 days
[26] = 500 g ai/ha, 0 to 100 scale where 0 is no effect and 100 is complete control
[27] = 125 g ai/ha, postemergence, visual rating, scale 0 to 100 (0 no effect, 100 complete control)
[28] = 125 g ai/ha, postemergence, visual rating
[29] = 1000 g ai/ha, 0 to 100 scale, 0 no effect, 100 complete control

## FCc1cccc(Oc2ncc(F)cn2)c1-n1cc(I)cn1 [Compound 152]
[1]; [15]
  Plant response rating (0 to 100), Oat, Wild: 0
[1]; [16]
  Plant response rating (0 to 100), Oat, Wild: 0
[1]; [17]
  Oat, Wild plant response rating: 5
[2]
  Plant response rating, Barnyardgrass: 0
[3]; [15]
  Plant response rating (0 to 100), Foxtail, Giant: 0
[3]; [16]
  Plant response rating (0 to 100), Foxtail, Giant: 5
[3]; [18]
  Foxtail, Giant plant response rating: 5
[4]
  Plant response rating, Rice: 0
[5]; 31 g ai/ha, 0 to 100 scale where 0 is no effect and 100 is complete control, visual, approximately 10 days
  Plant response rating, Barnyardgrass: 20
[5]; [19]
  Plant response rating, Barnyardgrass: 70
[6]; [20]
  Plant response rating (0 to 100), Barnyardgrass: 0
[6]; [15]
  Plant response rating (0 to 100), Barnyardgrass: 0
[6]; [16]
  Plant response rating (0 to 100), Barnyardgrass: 5
[6]; [18]
  Barnyardgrass plant response rating: 5
[7]; [20]
  Plant response rating (0 to 100), Chickweed: 5
[7]; [15]
  Plant response rating (0 to 100), Chickweed: 5
[7]; [16]
  Plant response rating (0 to 100), Chickweed: 10
[7]; [18]
  Chickweed plant response rating: 30
[8]
  Plant response rating, Sedge, Umbrella: 50
[9]; [15]
  Plant response rating (0 to 100), Nutsedge, Yellow: 0
[9]; [16]
  Plant response rating (0 to 100), Nutsedge, Yellow: 0
[9]; [17]
  Nutsedge, Yellow plant response rating: 0
[10]; [15]
  Plant response rating (0 to 100), Lambsquarters: 60
[10]; [16]
  Plant response rating (0 to 100), Lambsquarters: 40
[10]; [17]
  Lambsquarters plant response rating: 80
[11]; [21]
  Plant response rating, Barnyardgrass: 0
[11]; [19]
  Barnyardgrass plant response rating: 30
[12]; [15]
  Plant response rating (0 to 100), Morningglory: 0
[12]; [16]
  Plant response rating (0 to 100), Morningglory: 10
[12]; [17]
  Morningglory plant response rating: 40
[13]; [15]
  Plant response rating (0 to 100), Crabgrass, Large: 5
[13]; [16]
  Plant response rating (0 to 100), Crabgrass, Large: 5
[13]; [18]
  Crabgrass, Large plant response rating: 5
[14]; [21]
  Plant response rating, Pigweed: 0
[14]; [19]
  Pigweed plant response rating: 90

## Cc1cnc(Oc2cccc(C#N)c2-n2cc(C#N)cn2)nc1 [Compound 90]
[1]; 125 g ai/ha, postemergence
  Plant response rating (0 to 100), Oat, Wild: 5
[1]; [22]
  Plant response rating, Oat, Wild: 0
[1]; [23]
  Plant response rating, Oat, Wild: 5
[2]
  Plant response rating, Barnyardgrass: 0
[3]; [24]
  Foxtail, Giant plant response rating: 35
[3]; 125 g ai/ha, postemergence
  Plant response rating (0 to 100), Foxtail, Giant: 20
[3]; [25]
  Plant response rating, Foxtail, Giant: 15
[3]; Postemergence, 62 g ai/ha
  Plant response rating, Foxtail, Giant: 20
[4]
  Plant response rating, Rice: 0
[5]; [19]
  Plant response rating, Barnyardgrass: 70
[5]; 0 to 100 scale, 0 no effect, 100 complete control, approx. 10 days
  Barnyardgrass plant response rating: 100
[6]; [24]
  Barnyardgrass plant response rating: 5
[6]; 125 g ai/ha, postemergence
  Plant response rating (0 to 100), Barnyardgrass: 10
[6]; [25]
  Plant response rating, Barnyardgrass: 5
[6]; Postemergence, 62 g ai/ha
  Plant response rating, Barnyardgrass: 5
[7]; [24]
  Chickweed plant response rating: 5
[7]; 125 g ai/ha, postemergence
  Plant response rating (0 to 100), Chickweed: 50
[7]; [25]
  Plant response rating, Chickweed: 30
[7]; Postemergence, 62 g ai/ha
  Plant response rating, Chickweed: 15
[8]
  Plant response rating, Sedge, Umbrella: 40
[9]; 125 g ai/ha, postemergence
  Plant response rating (0 to 100), Nutsedge, Yellow: 10
[9]; [22]
  Plant response rating, Nutsedge, Yellow: 5
[9]; [23]
  Plant response rating, Nutsedge, Yellow: 10
[10]; 125 g ai/ha, postemergence
  Plant response rating (0 to 100), Lambsquarters: 60
[10]; [22]
  Plant response rating, Lambsquarters: 75
[10]; [23]
  Plant response rating, Lambsquarters: 60
[11]; [19]
  Plant response rating, Barnyardgrass: 90
[11]; [26]
  Plant response rating, Barnyardgrass: 100
[12]; 125 g ai/ha, postemergence
  Plant response rating (0 to 100), Morningglory: 85
[12]; [22]
  Plant response rating, Morningglory: 60
[12]; [23]
  Plant response rating, Morningglory: 75
[13]; [24]
  Crabgrass, Large plant response rating: 5
[13]; 125 g ai/ha, postemergence
  Plant response rating (0 to 100), Crabgrass, Large: 10
[13]; [25]
  Plant response rating, Crabgrass, Large: 5
[13]; Postemergence, 62 g ai/ha
  Plant response rating, Crabgrass, Large: 10
[14]; [19]
  Plant response rating, Pigweed: 100
[14]; [26]
  Plant response rating, Pigweed: 100

## FCc1cn(-c2ccccc2Oc2ncc(Cl)cn2)nn1 [Compound 123]
[1]; [16]
  Plant response rating (0 to 100), Oat, Wild: 0
[1]; [27]
  Plant response rating, Oat, Wild: 0
[1]; [23]
  Plant response rating, Oat, Wild: 0
[2]
  Plant response rating, Barnyardgrass: 35
[3]; [16]
  Plant response rating (0 to 100), Foxtail, Giant: 0
[3]; [28]
  Plant response rating, Foxtail, Giant: 20
[3]; Postemergence, 62 g ai/ha
  Plant response rating, Foxtail, Giant: 20
[4]
  Plant response rating, Rice: 0
[5]; [29]
  Plant response rating, Barnyardgrass: 100
[6]; [16]
  Plant response rating (0 to 100), Barnyardgrass: 10
[6]; [28]
  Plant response rating, Barnyardgrass: 15
[6]; [25]
  Plant response rating, Barnyardgrass: 15
[6]; Postemergence, 62 g ai/ha
  Plant response rating, Barnyardgrass: 15
[7]; [16]
  Plant response rating (0 to 100), Chickweed: 5
[7]; [28]
  Plant response rating, Chickweed: 60
[7]; Postemergence, 62 g ai/ha
  Plant response rating, Chickweed: 50
[8]
  Plant response rating, Sedge, Umbrella: 40
[9]; [16]
  Plant response rating (0 to 100), Nutsedge, Yellow: 5
[9]; [27]
  Plant response rating, Nutsedge, Yellow: 10
[9]; [23]
  Plant response rating, Nutsedge, Yellow: 10
[10]; [16]
  Plant response rating (0 to 100), Lambsquarters: 60
[10]; [27]
  Plant response rating, Lambsquarters: 85
[10]; [23]
  Plant response rating, Lambsquarters: 85
[11]; [29]
  Plant response rating, Barnyardgrass: 100
[12]; [16]
  Plant response rating (0 to 100), Morningglory: 5
[12]; [27]
  Plant response rating, Morningglory: 75
[12]; [23]
  Plant response rating, Morningglory: 55
[13]; [16]
  Plant response rating (0 to 100), Crabgrass, Large: 0
[13]; [28]
  Plant response rating, Crabgrass, Large: 5
[13]; Postemergence, 62 g ai/ha
  Plant response rating, Crabgrass, Large: 5
[14]; [29]
  Plant response rating, Pigweed: 100

## Clc1cnc(Oc2cccc(Br)c2-n2cc(I)nn2)nc1 [Compound 117]
[1]; [16]
  Plant response rating (0 to 100), Oat, Wild: 10
[1]; [27]
  Plant response rating, Oat, Wild: 20
[1]; [23]
  Plant response rating, Oat, Wild: 10
[2]
  Plant response rating, Barnyardgrass: 0
[3]; [16]
  Plant response rating (0 to 100), Foxtail, Giant: 20
[3]; [28]
  Plant response rating, Foxtail, Giant: 55
[3]; Postemergence, 62 g ai/ha
  Plant response rating, Foxtail, Giant: 40
[4]
  Plant response rating, Rice: 0
[5]; [19]
  Plant response rating, Barnyardgrass: 30
[5]; 0 to 100 scale where 0 is no effect and 100 is complete control
  Barnyardgrass plant response rating: 90
[6]; [16]
  Plant response rating (0 to 100), Barnyardgrass: 5
[6]; [28]
  Plant response rating, Barnyardgrass: 10
[6]; [25]
  Plant response rating, Barnyardgrass: 5
[6]; Postemergence, 62 g ai/ha
  Plant response rating, Barnyardgrass: 5
[7]; [16]
  Plant response rating (0 to 100), Chickweed: 50
[7]; [28]
  Plant response rating, Chickweed: 80
[7]; Postemergence, 62 g ai/ha
  Plant response rating, Chickweed: 70
[8]
  Plant response rating, Sedge, Umbrella: 20
[9]; [16]
  Plant response rating (0 to 100), Nutsedge, Yellow: 5
[9]; [27]
  Plant response rating, Nutsedge, Yellow: 5
[9]; [23]
  Plant response rating, Nutsedge, Yellow: 5
[10]; [16]
  Plant response rating (0 to 100), Lambsquarters: 45
[10]; [27]
  Plant response rating, Lambsquarters: 75
[10]; [23]
  Plant response rating, Lambsquarters: 50
[11]; [19]
  Plant response rating, Barnyardgrass: 70
[11]; [26]
  Plant response rating, Barnyardgrass: 90
[12]; [16]
  Plant response rating (0 to 100), Morningglory: 80
[12]; [27]
  Plant response rating, Morningglory: 90
[12]; [23]
  Plant response rating, Morningglory: 90
[13]; [16]
  Plant response rating (0 to 100), Crabgrass, Large: 10
[13]; [28]
  Plant response rating, Crabgrass, Large: 20
[13]; Postemergence, 62 g ai/ha
  Plant response rating, Crabgrass, Large: 20
[14]; [26]
  Plant response rating, Pigweed: 100
